# Experimental data: publication PMC3519527, “Compounds from Sorindeia juglandifolia (Anacardiaceae) exhibit potent anti-plasmodial activities in vitro and in vivo” (Malaria Journal, 2012)
# Several values for one entry are separate records, joined by “and”; a condition that tells them apart may be missing. Equal entries are not always repeated. Structures can show the parent of a compound that is named as a salt. Where two headings read alike, the source gives them in different places.
# Tests used:
# [1] = system: Plasmodium falciparum chloroquine-resistant strain W2; experiment: In vitro screening against Plasmodium falciparum W2 (flow cytometry, 48 h); assay type: cell-based; settings: read-out: P. falciparum W2 IC50±SD
# Method: Plasmodium falciparum strain W2, known to be resistant to chloroquine and other anti-malarials, was cultured in sealed flasks at 37°C, in a 3% O2, […] and 91% N2 atmosphere in RPMI 1640, 25 mM HEPES, pH 7.4, supplemented with heat inactivated 10% human serum and human erythrocytes to achieve a 2% haematocrit. Serum and erythrocytes were purified from blood voluntarily given by adults with no recent contact with malaria, and who have signed an informed consent form. Parasites were synchronized in the ring stage by serial treatment with 5% sorbitol (Sigma) and tested at 1% parasitaemia. Stock solutions of plant extracts were prepared as 1 mg/ml in DMSO, diluted as needed for individual experiments, and tested in triplicate as described previously. The stock solutions were diluted in supplemented RPMI 1640 medium so as to have at most 0.2% DMSO in the final reaction medium. Equal volumes (100μl) of inhibitors and 1% parasitaemia, 4% haematocrit culture were then added and gently mixed thoroughly. Negative controls contained equal concentrations of DMSO. Positive controls contained 1 μM chloroquine phosphate (Sigma). Cultures were incubated at 37°C for 48 h. Parasites at the ring stage were thereafter fixed by replacing the serum medium by an equal volume of 1% formaldehyde in PBS. Aliquots (5 μl) of each culture were then added to round-bottom polystyrene 96 well plates containing 150 μl of 100 mM NH4Cl, 0.1% Triton X- 100 and 1 nM YOYO-1 nuclear dye (Molecular Probes) in PBS, and the parasitaemia of treated and control cultures were compared using a Becton-Dickinson FACSort flow cytometer equipped with AMS-1 loader (Cytek Development) to count nucleated (parasitized) erythrocytes. Data acquisition was performed using Cell Quest software.
# [2] = system: P. falciparum field isolates; experiment: In vitro screening against Plasmodium falciparum field isolates (Giemsa smears, 48 h); assay type: cell-based
# Method: Plasmodium falciparum isolates were prepared as described previously. Blood was collected from outpatients presenting at the Etoug-Ebe Baptist Health Centre in Yaoundé with uncomplicated malaria. Patients older than five years of age with mono infection with P. falciparum and parasite density greater than 6,000 asexual parasites per microliter of blood were considered for inclusion in the study. Those with recent history of self-medication with anti-malarial drugs were excluded. After patients agreed to participate in the study and signed the consent form, 5 mL of blood was collected from them by venipuncture into heparinized tubes. The blood was centrifuged at 3,000 rpm for 15 min and the supernatant discarded. The pellets were suspended in 10 mL of pre-warmed RPMI 1640 medium and centrifuged again twice at 3,000 rpm for 5 min, and the supernatant was then discarded. The volume of the packed-cells was estimated and mixed with an equal amount of RPMI 1640, 25 mM HEPES, pH 7.4, and subsequently used at 4% haematocrit for experiments. Thin smears were evaluated to assess the parasitaemia, the developmental stages of parasites, and the colour, shape and size of red blood cells. Nine such isolates were prepared and subsequently used for experiments.
# The activity of plant products was assessed as previously described. […] Stock solutions of plant extracts were prepared at 1 mg/ml in DMSO and diluted as needed for individual experiments in 96-well plates using RPMI 1640, to achieve a maximum final DMSO concentration of 0.2%. Chloroquine was used as positive control at 1 μM, and the negative control was an equal concentration of DMSO. To assess the susceptibility of parasites to drugs, they were maintained in RPMI 1640 supplemented with 25 mM HEPES buffer (pH 7.4), 0.05% ampicillin, and 10% AB+ human serum at 37°C, in a candle jar. To achieve this, 200 μl parasite suspensions at 4% haematocrit and 0.1%– 0.3% parasitaemia were added to 50 μl of each concentration of inhibitor in individual wells, each tested in triplicate. Cultures were incubated at 37°C for 48 h in a candle jar. To estimate the effects of inhibitors after 48 h, thin smears from treated and control cultures were fixed in methanol for 30 s, stained using fresh 5% Giemsa solution (Sigma) in phosphate buffer (pH 7.1), and examined by counting the parasitaemia per 100 erythrocytes. IC50s were calculated from curves plotting percent growth versus drug concentration using Prism 5.0 software with data fitted by nonlinear regression to the variable slope sigmoidal dose–response formula y = 100/[1 + 10^(logIC50− x)H, where H is the Hill coefficient or slope factor [5].
# [3] = system: Plasmodium berghei strain B; experiment: In vivo suppressive test in mice; set-up: species or system Plasmodium berghei in Swiss albino mice; settings: for SD50 (suppressive dose at 50%): oral, parasitaemia 24 h after last dose
# Method: (§1) Compound 1 (2,3,6-trihydroxy benzoic acid), obtained from the fractionation of S.juglandifolia extract, was assessed in vivo using the Plasmodium berghei rodent parasite model, according to the procedure described by Okokon et al.[12] with a few modifications. Plasmodium berghei strain B (MRA-406, MR4, ATCC® Manassas Virginia) was obtained from BEI Resources and used for the experiments. Female Swiss albino mice aged eight weeks and weighing ~20 g were used for efficacy and toxicity experiments. These animals were bred in the animal house of the Faculty of Medicine, University of Yaoundé I. They were fed a standard laboratory diet (S.P.C. Ltd., Bafoussam, Cameroon) and given clean tap water ad libitum. Animal welfare requirements were strictly considered during the experiments, as described in the protocol approved by the National Ethics Committee (Reg. No.FWAIRB00001954). To start infections, a cryotube of parasites was thawed and the undiluted contents were injected immediately i.p. into naïve recipient mice. Three days after infection, the parasitaemia was evaluated daily in tail vein blood through Giemsa-stained thin smear observation under oil immersion at 100X magnification. Passage of infection into new mice consisted of an i.p. injection of 200 μL of 10^6 infected erythrocytes/mL sterile PBS. The test compound was dissolved and diluted in Tween 20: Ethanol (7:3 v/v).
# Preliminary screening of the compound consisted of a suppressive test. To achieve this, animals were infected i.p. with 200 μL of 10^6 infected erythrocytes/mL sterile PBS. Four hours after infection, duplicate batches of animals were treated as follows: four batches of six mice each were given test drug orally at respective dosages of 10, 30, 50 and 100 mg/kg, and subsequently once daily for four consecutive days. Negative controls consisted of one batch of 6 infected mice receiving no drug (dose 0), and one batch of six uninfected animals. Positive controls consisted of one batch of infected mice receiving quinine sulfate at 24 mg/kg.
# (§2) Curative assays were subsequently conducted using the same setting, with animal receiving drug at daily oral dosages of 10, 30, 50 and 100 mg/kg for 5 consecutive days, starting day 3 (72 hours) after infection. Thin blood smears were made daily from the tail blood of mice and the level of parasitaemia assessed by examination of Giemsa-stained smears using a microscope at 100X magnification.
# [4] = system: Plasmodium berghei strain B; experiment: In vivo curative test in mice; set-up: species or system Plasmodium berghei in Swiss albino mice
# Method: as §1, §2
# recombinant falcipain-2 = molecular target: T1, recombinant falcipain-2 (Plasmodium falciparum, UniProt Q8I6U4); experiment: Falcipain-2 inhibition (Z-Leu-Arg-AMC hydrolysis); assay type: biochemical; settings: recombinant enzyme, pH 5.5, triplicate; for IC50: read-out: Falcipain-2 IC50±SD
# T1 construct: made in house
# T1 sequence (Q8I6U4 244-484): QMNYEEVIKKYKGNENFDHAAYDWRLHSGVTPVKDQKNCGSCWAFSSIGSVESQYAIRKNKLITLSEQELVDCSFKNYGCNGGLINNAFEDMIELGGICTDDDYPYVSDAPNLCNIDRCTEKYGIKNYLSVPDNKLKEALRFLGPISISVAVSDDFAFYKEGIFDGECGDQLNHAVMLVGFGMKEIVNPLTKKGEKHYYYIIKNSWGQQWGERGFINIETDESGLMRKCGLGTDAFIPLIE
# Method: Falcipain-2 activity was measured as hydrolysis of the fluorogenic substrate benzyloxycarbonyl-Leu-Arg-7-amino-4-methyl-coumarin (Z-Leu-Arg-AMC) using a Fluoroskan II spectrofluorometer, as described previously. For inhibitor assays, recombinant falcipain-2 prepared as described previously was incubated with inhibitors (added from stocks concentrated 100- to 1,000-fold in dimethyl sulfoxide [DMSO]) with 10 mM dithiothreitol, pH 5.5, for 30 min at room temperature before the substrate (50 μM) was added. Equal concentrations of enzyme were used for each experiment. Multiple inhibitor concentrations were studied in triplicate, and the rates of hydrolysis were determined and compared to those of controls containing equal concentrations of DMSO. All values were normalized to the control activity, and IC50s were calculated with the Prism 5.0 program, with data fitted by nonlinear regression.
# [5] = Plasmodium falciparum, W2, 48 h, W2 strain, 48 h, triplicate
# [6] = Plasmodium falciparum, isolate E01, read-out: IC50±SD
# [7] = Plasmodium falciparum, isolate E02, read-out: IC50±SD
# [8] = Plasmodium falciparum, isolate E03, read-out: IC50±SD
# [9] = Plasmodium falciparum, isolate E04, read-out: IC50±SD
# [10] = Plasmodium falciparum, isolate E05, read-out: IC50±SD
# [11] = Plasmodium falciparum, isolate E06, read-out: IC50±SD
# [12] = Plasmodium falciparum, isolate E07, read-out: IC50±SD
# [13] = Plasmodium falciparum, isolate E08, read-out: IC50±SD
# [14] = Plasmodium falciparum, isolate E09, read-out: IC50±SD
compound,measurement,setting,value
"C[C@@H]1CC[C@H]2[C@@H](C)C(=O)O[C@@H]3O[C@@]4(C)CC[C@@H]1[C@]32OO4 [ART, artemisinin, reference compound]",IC50,[1]; [5],0.007 ± 0.01 µg/mL
"CCN(CC)CCCC(C)Nc1ccnc2cc(Cl)ccc12 (centres unmarked) [CQ, chloroquine, reference compound]",IC50,"[2]; Plasmodium falciparum, read-out: IC50 against P. falciparum isolates, span over the nine field isolates",0.0166 to 0.0384 µg/mL
same,IC50,"[2]; Plasmodium falciparum, read-out: IC50±SD, isolate E01",0.0254 ± 0.00347 µg/mL
same,IC50,"[2]; Plasmodium falciparum, read-out: IC50±SD, isolate E02",0.0233 ± 0.019 µg/mL
same,IC50,"[2]; Plasmodium falciparum, read-out: IC50±SD, isolate E03",0.0384 ± 0.00437 µg/mL
same,IC50,"[2]; Plasmodium falciparum, read-out: IC50±SD, isolate E04",0.0272 ± 0.00072 µg/mL
same,IC50,"[2]; Plasmodium falciparum, read-out: IC50±SD, isolate E05",0.0166 ± 0.00148 µg/mL
same,IC50,"[2]; Plasmodium falciparum, read-out: IC50±SD, isolate E06",0.0192 ± 0.00486 µg/mL
same,IC50,"[2]; Plasmodium falciparum, read-out: IC50±SD, isolate E07",0.0243 ± 0.00332 µg/mL
same,IC50,"[2]; Plasmodium falciparum, read-out: IC50±SD, isolate E08",0.0187 ± 0.00094 µg/mL
same,IC50,"[2]; Plasmodium falciparum, read-out: IC50±SD, isolate E09",0.0188 ± 0.00187 µg/mL
same,IC50,"[1]; Plasmodium falciparum, W2, 48 h",0.05 ± 0.01 µg/mL
"O=C(O)c1c(O)ccc(O)c1O [Compound 1, 2,3,6-trihydroxy benzoic acid]",Mean % Suppression/Inhibition,"[3]; 10 mg/kg oral, once daily, 24 h after last dose",22.73%
same,Mean % Suppression/Inhibition,"[3]; 30 mg/kg oral, once daily, 24 h after last dose",35.95%
same,Mean % Suppression/Inhibition,"[3]; 50 mg/kg oral, once daily, 24 h after last dose",53.66%
same,Mean % Suppression/Inhibition,"[3]; 100 mg/kg oral, once daily, 24 h after last dose",69.63%
same,SD50 (suppressive dose at 50%),[3],44.9 mg/kg and 44.9 ± 1.6 mg/kg
same,SD50 (suppressive dose at 50%),"[3]; listed as 2,3,6-trihydroxy benzoic acid (1)",^cSD50 = 44.9 ± 1.6 mg/kg
same,Mean % Suppression/Inhibition,[4]; 10 mg/kg oral daily for 5 days from day 3,20.95%
same,Mean % Suppression/Inhibition,[4]; 30 mg/kg oral daily for 5 days from day 3,41.00%
same,Mean % Suppression/Inhibition,[4]; 50 mg/kg oral daily for 5 days from day 3,57.27%
same,Mean % Suppression/Inhibition,[4]; 100 mg/kg oral daily for 5 days from day 3,66.40%
same,ED50,"[4]; Plasmodium berghei, oral, parasitaemia 24 h after last dose, read-out: ED50 (effective dose at 50%)",42.2 mg/kg
same,melting point,,188.5 to 190 °C
same,IC50,recombinant falcipain-2,35.4 µM
same,IC50,[2]; [6],11.3 ± 0.92 µM
same,IC50,[2]; [7],17.1 ± 0.48 µM
same,IC50,[2]; [8],22 ± 0.93 µM
same,IC50,[2]; [9],24.8 ± 1.04 µM
same,IC50,[2]; [10],6.32 ± 0.16 µM
same,IC50,[2]; [11],36.1 ± 2.01 µM
same,IC50,[2]; [12],33.7 ± 0.61 µM
same,IC50,[2]; [13],9.92 ± 4.82 µM
same,IC50,[2]; [14],19.77 ± 0.14 µM
same,IC50,"[2]; Plasmodium falciparum, span over the nine field isolates, read-out: IC50 against P. falciparum isolates",6.3 µM
same,IC50,"[2]; span over the nine field isolates, read-out: IC50 against P. falciparum isolates",6.3 to 36.1 µM
same,IC50,[1]; [5],16.5 µM
same,IC50,"[1]; W2 strain, 48 h, triplicate, listed as 2,3,6-trihydroxy benzoic acid (1)",16.5 ± 0.47 µM
"COC(=O)c1c(O)ccc(O)c1O [Compound 2, 2,3,6-trihydroxy methyl benzoate]",IC50,recombinant falcipain-2,6.1 µM and 6.09 µM
same,IC50,[2]; [6],7.02 ± 0.07 µM
same,IC50,[2]; [7],14.7 ± 0.15 µM
same,IC50,[2]; [8],19.8 ± 0.38 µM
same,IC50,[2]; [9],18.8 ± 1.04 µM
same,IC50,[2]; [10],12.2 ± 0.02 µM
same,IC50,[2]; [11],23.1 ± 2.01 µM
same,IC50,[2]; [12],26.69 ± 0.02 µM
same,IC50,[2]; [13],13.3 ± 1.85 µM
same,IC50,[2]; [14],24.4 ± 0.05 µM
same,IC50,[1]; [5],13 µM
same,IC50,"[1]; W2 strain, 48 h, triplicate, listed as 2,3,6-trihydroxy methyl benzoate (2)",13 ± 1.63 µM
"CC(C)C[C@H](NC(=O)[C@H]1O[C@@H]1C(=O)O)C(=O)NCCCCN=C(N)N [Compound E64, l-transepoxy-succinyl-leucylamido-(4-guanidino)-butane, reference compound]",Falcipain-2 IC50±SD,recombinant falcipain-2,0.049 ± 0.003 µg/mL
"C=C[C@H]1C[N@@]2CC[C@H]1C[C@H]2[C@H](O)c1ccnc2ccc(OC)cc12 [Quinine sulfate, quinine sulfate, reference compound]",Mean % Suppression/Inhibition,"[3]; 24 mg/kg, positive control",71.34%
same,Mean % Suppression/Inhibition,"[4]; 24 mg/kg, positive control",89.50%
